Values after ≈ are worked out from the molar mass of the structure shown. Like-named read-outs stand apart in the source and are kept apart here.

One experiment concerns MSSA. The experiment is described as follows: antibacterial activity (MIC) by agar plate dilution method, MSSA strains. It is filed as cell-based, Methicillin-sensitive Staphylooccus aureus. Particulars: Staphylococcus aureus, 20 h. How it is done: (§1) The screening of the present invention may be carried out according to the agar plate dilution method designated by the Japan Society of Chemotherapy (Chemotherapy 29(1), 76-79 (1981)). Mueller-Hinton agar base semi-synthetic medium may be used for a plate culture medium for a sensitivity test together with an inoculating bacteria solution which may be prepared by culturing bacteria to be tested at 37° C. for 20 hours diluted with 8.5% by isotonic sodium chloride solution to 10^6 CFU/ml. Diluted β-lactam solutions are prepared by two times serial dilution. 1 ml of the diluted β-lactam solution and 1 ml of a predetermined concentration of a sample to be tested are added to 8 ml of the plate culture medium for a sensitivity test. To the resultant plate culture medium for sensitivity test, the bacteria are inoculated using a microplanter (SAKUMASEISAKUSYO Co.), cultured for 20 hours at 37° C. followed by assessing for a minimum inhibition concentration (MIC).
(§2) (A) Antibacterial activities of ether extract from Scutellaria barbata, SB-1 (isolated from Scutellaria barbata), apigenin (authentic sample) and luteolin (authentic sample) were shown in Table 1.
(§3) Flavones were dissolved in methanol and the others were dissolved in 0.1 N NaOH. A method for determination of antibacterial activity is, as described above, an agar plate dilution method designated by the Japan Society of Chemotherapy (Chemotherapy 29(1), 76-79 (1981)) to determine MIC value. MIC80 is a concentration at which a strain is prohibited to proliferate by 80% and MIC50 is a concentration at which a strain is prohibited to proliferate by 50%.

The subject of a further experiment is MRSA. Description: antibacterial activity (MIC) by agar plate dilution method, MRSA strains. Conditions: Staphylococcus aureus, 20 h. Format: cell-based, methicillin-resistant Staphylococcus aureus. As to the method:
as §1, §2, §3

Another experiment concerns MRSA and MSSA. Description: antibacterial activity (MIC) by agar plate dilution method, MRSA and MSSA strains together. It is filed as cell-based, Staphylococcus aureus. Particulars: for antibacterial activity (in words): Table 2; for MIC: Staphylococcus aureus, 20 h, read-out: MIC values (text summary of Table 2). As to the method:
as §1, with “(MIC). […]” for “(MIC).”
Antibacterial activity is determined for flavones including flavone, flavonol, flavanone, isoflavone, catechin and calchone, as follows:
as §3

The mark [1] stands for this setting: MSSA (7 strains), read-out: MIC50.
[2] abbreviates: MRSA (20 strains), read-out: MIC50.

`O=c1cc(-c2ccc(O)c(O)c2)oc2cc(O)cc(O)c12` [Luteolin, luteolin]: the MIC50 against MSSA (MSSA) and in the experiment on MRSA (MRSA) was 125 µg/mL (≈ 437 µM) in each case. Also, the MIC was 62.5 to 125 µg/mL (≈ 218 to 437 µM) against MSSA (MSSA, MSSA (7 strains), range over strains); 125 µg/mL (≈ 437 µM) against MSSA (MSSA, MSSA strain No. 21); 125 µg/mL (≈ 437 µM) in the experiment on MSSA (MSSA, MSSA strain No. 22); 62.5 µg/mL (≈ 218 µM) in the experiment with MSSA (MSSA, MSSA strain No. 23); 62.5 µg/mL (≈ 218 µM) with MSSA (MSSA, MSSA strain No. 24); 125 µg/mL (≈ 437 µM) in the experiment with MSSA (MSSA, MSSA strain No. 25). Also, the MIC was 125 µg/mL (≈ 437 µM) against MSSA (MSSA, MSSA strain No. 26); 62.5 µg/mL (≈ 218 µM) in the experiment with MSSA (MSSA, MSSA strain No. 27); 62.5 to 125 µg/mL (≈ 218 to 437 µM) against MRSA (MRSA, MRSA (20 strains), range over strains); 125 µg/mL (≈ 437 µM) with MRSA (MRSA, MRSA strain No. 1); 125 µg/mL (≈ 437 µM) in the experiment on MRSA (MRSA, MRSA strain No. 2); 125 µg/mL (≈ 437 µM) against MRSA (MRSA, MRSA strain No. 3). The MIC in the experiment on MRSA (MRSA, MRSA strain No. 4) was determined as 125 µg/mL (≈ 437 µM); with MRSA (MRSA, MRSA strain No. 5), 62.5 µg/mL (≈ 218 µM); in the experiment on MRSA (MRSA, MRSA strain No. 6) it was 62.5 µg/mL (≈ 218 µM); against MRSA (MRSA, MRSA strain No. 7) it was 62.5 µg/mL (≈ 218 µM); in the experiment with MRSA (MRSA, MRSA strain No. 8), 62.5 µg/mL (≈ 218 µM); against MRSA (MRSA, MRSA strain No. 9), 62.5 µg/mL (≈ 218 µM). Further, the MIC against MRSA (MRSA, MRSA strain No. 10) worked out at 62.5 µg/mL (≈ 218 µM); against MRSA (MRSA, MRSA strain No. 11), 125 µg/mL (≈ 437 µM); against MRSA (MRSA, MRSA strain No. 12), 125 µg/mL (≈ 437 µM); with MRSA (MRSA, MRSA strain No. 13), 62.5 µg/mL (≈ 218 µM); against MRSA (MRSA, MRSA strain No. 14) it was 125 µg/mL (≈ 437 µM); against MRSA (MRSA, MRSA strain No. 15), 125 µg/mL (≈ 437 µM). In addition, the MIC in the experiment on MRSA (MRSA, MRSA strain No. 16) came to 125 µg/mL (≈ 437 µM); in the experiment with MRSA (MRSA, MRSA strain No. 17) it was 125 µg/mL (≈ 437 µM); against MRSA (MRSA, MRSA strain No. 18), 125 µg/mL (≈ 437 µM); with MRSA (MRSA, MRSA strain No. 19), 125 µg/mL (≈ 437 µM); against MRSA (MRSA, MRSA strain No. 20), 62.5 µg/mL (≈ 218 µM). Besides, the “antibacterial activity (in words)” value in the experiment on MRSA and MSSA (MRSA and MSSA) was “showed antibacterial activity”.
For the molecule `O=C(CCc1ccc(O)cc1)c1c(O)cc(O)cc1O` [Phloretin, phloretin], the MIC50 in the experiment on MSSA (setting [1]) is 125 µg/mL (≈ 456 µM); in the experiment with MRSA (setting [2]) it was 250 µg/mL (≈ 912 µM). Further, the MIC with MSSA (MSSA, MSSA (7 strains), range over strains, read-out: MIC) is 125 to 250 µg/mL (≈ 456 to 912 µM); with MRSA and MSSA (MRSA and MSSA, "in each case"), 250 µg/mL (≈ 912 µM). Also, the “antibacterial activity (in words)” value is reported as “showed activity” with MRSA and MSSA (MRSA and MSSA); “showed antibacterial activity” with MRSA and MSSA (MRSA and MSSA, listed as phioretin).
On to `O=c1c(O)c(-c2ccc(O)c(O)c2)oc2cc(O)cc(O)c12` [Quercetin, quercetin], for which the MIC50 in the experiment with MSSA (setting [1]) and against MRSA (MRSA) was 250 µg/mL (≈ 827 µM) in each case. In the experiment on MRSA and MSSA (MRSA and MSSA), the “antibacterial activity (in words)” value is given as “showed antibacterial activity”. In the experiment with MRSA and MSSA, the minimal inhibitory concentration (MIC) came to 250 µg/mL (≈ 827 µM).
Take `COc1cc(O)c2c(c1)OC(c1ccc(O)cc1)CC2=O` (stereo not shown) [Sakranetin, sakranetin]: the MIC50 with MSSA (setting [1]) was more than 250 µg/mL; in the experiment on MRSA (setting [2]), 125 µg/mL (≈ 437 µM). Also, the “antibacterial activity (in words)” value with MRSA and MSSA (MRSA and MSSA) is “showed antibacterial activity”. For the same molecule, the MIC with MRSA and MSSA (MRSA and MSSA, "in each case") came to 250 µg/mL (≈ 873 µM).

One may read the MIC50 as an inhibitory concentration at the 50% level, which refers to growth in some studies and to a panel of isolates in others. In general, MIC refers to the least concentration at which growth counts as inhibited.

The values above are taken from patent publication US6294526A, “Use of flavone derivatives for induction of β-lactam-sensitivity of MRSA” (priority 1998, dated 2001).
